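Protocol summary: plate cells (96-well), add compound at 5 concentrations, incubate 48 h, interpolate endpoints linearly. Abbreviation: GI50, concentration required for 50% inhibition of growth.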 Activity calls are given as the source filed them. Rule as the data show it: active = GI50 up to about 1.1 µM and inactive = higher.
How the values were obtained:
Test in all cases: NCI anticancer screen, dose series, 48 h
SNB-78 = system: SNB-78
RXF 631 = system: RXF 631
DMS-114 = system: DMS-114
HOP-18 = system: HOP-18
KM-20L2 = system: KM-20L2
XF498 = system: XF498
DMS-273 = system: DMS-273
DLD-1 = system: DLD-1
LXFL 529 = system: LXFL 529

Measured: GI50

CC(=O)NC1C(OCc2ccccc2)OC(COC(=O)CCCCCCCCCCNC(=O)c2cccc3c(=O)c4ccccc4[nH]c23)C(O)C1OC(C)C(=O)NC(C)C(=O)NC(CCC(N)=O)C(N)=O (stereo not given)
inactive: SNB-78 99.1 µM | RXF 631 19.5 µM | DMS-114 36.3 µM | HOP-18 59 µM | KM-20L2 > 100 µM | XF498 38.7 µM | DMS-273 57.8 µM | DLD-1 95.9 µM | LXFL 529 37.3 µM

COc1ccc(OC2(c3cc(OC)ccc3OC)OC(=O)c3ccccc32)cc1 (stereo not given)
inactive: SNB-78 > 100 µM | RXF 631 > 100 µM | DMS-114 > 100 µM | HOP-18 > 100 µM | KM-20L2 > 100 µM | DMS-273 > 100 µM | DLD-1 > 100 µM | LXFL 529 > 100 µM

O=C1C=CC(=O)c2cc(Sc3ccccc3)c(=O)ccc21
inactive: SNB-78 20 µM | RXF 631 21.7 µM | DMS-114 18.8 µM | HOP-18 17.9 µM | KM-20L2 20.2 µM | DMS-273 18.9 µM | DLD-1 13.6 µM | LXFL 529 7.43 µM

O=C(COC(=O)c1cccc2c(=O)c3ccccc3[nH]c12)Nc1ccccc1
inactive: RXF 631 28.5 µM | DMS-114 22.3 µM | HOP-18 > 100 µM | KM-20L2 79.6 µM | XF498 32.1 µM | DMS-273 58.1 µM | DLD-1 65 µM | LXFL 529 28.6 µM

Cc1noc2cccc(OCc3ccccc3)c12
inactive: SNB-78 80.5 µM | RXF 631 85.7 µM | DMS-114 29 µM | HOP-18 > 100 µM | KM-20L2 65.5 µM | XF498 56.9 µM | DMS-273 52 µM | DLD-1 64.9 µM | LXFL 529 49 µM

CCN(CC)C(=O)CC12CCCCC1=Nc1ccccc12 (stereo not given)
inactive: SNB-78 > 100 µM | RXF 631 > 100 µM | HOP-18 > 100 µM | KM-20L2 > 100 µM | XF498 > 100 µM | DMS-273 > 100 µM | DLD-1 > 100 µM | LXFL 529 > 100 µM

O=[N+]([O-])c1ccc2nc(/C(=N/Nc3ccccc3)C(O)c3ccc(Cl)cc3Cl)c(O)nc2c1 (stereo not given)
inactive: SNB-78 > 100 µM | RXF 631 50.4 µM | DMS-114 8.65 µM | HOP-18 > 100 µM | KM-20L2 > 100 µM | XF498 > 100 µM | DMS-273 39 µM | DLD-1 > 100 µM

COc1ccc(-c2cc(=O)c3c(O)c(O)c(OC)cc3o2)cc1O
inactive: RXF 631 92 µM | HOP-18 > 100 µM | KM-20L2 > 100 µM | XF498 > 100 µM | DMS-273 > 100 µM | DLD-1 > 100 µM | LXFL 529 > 100 µM

Reference: ChEMBL document CHEMBL1201862, “PubChem BioAssay data set” (2004)
